pIC50: −log10 of the molar value. ≈ marks a conversion by molar mass, not a printed value. Read-outs that look alike come from different tables or passages of the source.
Experiments:
[1] = Mammalian Cell Toxicity; type: cell-based; details: human, MRC5 cells
[2] = system: S. pneumoniae 149389; test: MIC; type: cell-based; details: Streptococcus pneumoniae
Description: (§1) The compounds were re-tested against other bacteria, including Staphylococcus epidermidis (ATCC 35984), Staphylococcus epidermidis (MRSE), E. faecium 134529, E. faecium 145494, […], E. faecium 161651, S. pneumoniae 49619, and S. pneumoniae 149389.
(§2) A series of compounds were evaluated for their activity against drug resistant S. aureus, including MSSA and MRSA strains.

[3] = system: E. faecium 134529; test: MIC; type: cell-based; details: Enterococcus faecium
Description: as §1, §2

[4] = system: E. faecalis 161651; test: MIC; type: cell-based; details: Enterococcus faecalis
Description: as §1, §2

[5] = system: E. faecium 145494; test: MIC; type: cell-based; details: Enterococcus faecium
Description: as §1, §2

[6] = system: S. epidermidis MRSE 01; test: MIC; type: cell-based; details: Staphylococcus epidermidis
Description: as §1, §2

[7] = system: S. epidermidis 35984; test: MIC; type: cell-based; details: Staphylococcus epidermidis
Description: as §1, §2

[8] = system: E. faecalis 29212; test: MIC; type: cell-based; details: Enterococcus faecalis
Description: as §1, §2

[9] = system: S. pneumoniae 49619; test: MIC; type: cell-based; details: Streptococcus pneumoniae
Description: as §1, §2

[10] = system: K. pneumoniae UMM; test: MIC; type: cell-based; details: Klebsiella pneumoniae
[11] = system: S. aureus specific Arg ASL (anticodon stem loop) RNA oligomer interaction with programmed ribosomes; test: Fluorescence polarization assay of Arg ASL / programmed ribosome complex (HTS and dose response); type: binding, S. aureus Arg ASL; E. coli 70S ribosomes; details: 6 pt dose response, fluorescence polarization after 4 hours at 25° C., corrected for auto-fluorescence
From the text: The assay requires the following materials: • Ribosomes—isolated from E. coli or S. aureus • fMet tRNA (Sigma or Chemical Block, Moscow) • mRNA (including the S-D sequence, the “box” sequence, the codon for methionine, and the codon for arginine that is specific for S. aureus, AGA, optionally with additional base pairs to the left of the S-D sequence and/or to the right of the codon for arginine) • Fluorescently labeled Arg ASL oliogomer • Buffer—HAM20,β • 384 well high binding micro titer plates (Matrix Technologies #4319, sold by Fischer Scientific as cat #50823855), or other appropriate plates for use in high throughput screening • Filtration (Sartorius Stedium 100 Kdalton VC 1042) or centrifugation for complex purification • EDTA—negative control (binding antagonist) • Neomycin—A-site binding enhancer (binding agonist)
A ribosome complex was prepared using the above materials and then purified prior to use in the assay. The prepared complex can be stored in concentrated form at −80° C. The complexes were diluted in buffer and dispensed onto plates. […] Fluorescence polarization was measured at approximately 4 hours after dispensing onto the micro-titer plates.
ASL^Arg was first heated for 2 min at 90° C. in water, after addition of 1/10 V of 10× buffer incubation continued on ice for at least 10 min. Prior to complex formation 70S ribosomes and tRNA were reactivated in buffer for 5 min at 45° C. followed by 10 min at 37° C.; mRNA was heated in buffer at 37° C. for 5 min. • (1000 μl×(2 μM E. coli 70S ribosomes+10 μM mRNA-Arg+4 μM tRNA^fmet)/HAM20,β→30 min @ 37° C.,+1000 μl×(0.2 μM neomycin+[…]))→20 min @ 37° C., overnight on ice • Final complex: (2000 pm P+2000 pm ASL)/2 ml=1 μM P+1 μM ASL HAM20,β:
Preparation of Complexes: The purified complex was diluted in ice cold HAM20,β such that the total fluorescence was approximately 2,000,000 units per 5 μL.
20 μl of the diluted complex was added to all 384 well plates (except for blank wells, which received 20 μL of HAM20 only, without complex) using Multidrop dispenser after which the plates were incubated at 25° C. for 4 hours (target 4.5 hours for middle of batch). Plates were then analyzed for fluorescence polarization in Analyst HT fluorescence plate reader and the following instrument settings:
The parallel and perpendicular fluorescence values of experimental wells were automatically corrected for the corresponding values obtained from the blank wells. The fluorescence polarization was calculated as following: P=(I−Ip)/(I+Ip), wherein Ip—is perpendicular fluorescence and I—is parallel fluorescence.
The percent of effect of experimental compounds was calculated as following: %-Inh=(P0−Pc)/(P0−P100)*100, wherein P0—is average polarization in 0%—inhibition control wells, P100—is average polarization in 100%—inhibition control wells, and Pc—is polarization in compound well.
The 3 sigma HTS hits were cherry picked and retested in 6 pt dose response format, using 3× serial dilution and the top nominal concentration of 100 uM.
The compounds were serially diluted in 10% DMSO and plated into 384 well plates (in a volume of 5 μL) to achieve the nominal final concentration raging from 100 μM to 0.4 μM. The plates received 20 μl of the diluted complex following incubation at 25° C. for 4 hours. Plates were then analyzed for fluorescence polarization as described above (see HTS section).
In parallel, the compounds were tested for auto-fluorescence. To this end, the compounds were plated (using the same dilution protocol) into 384 well plates. The plates received 20 μL of the HAM20 assay buffer only (without complex). The plates were incubated for 4 hrs and then were analyzed for fluorescence polarization as described above.

[12] = system: K. pneumoniae 700603; test: MIC; type: cell-based; details: Klebsiella pneumoniae
[13] = system: E. coli ESBL 4; test: MIC; type: cell-based; details: Escherichia coli, ESBL4
[14] = system: SA 33591 (Staphylococcus aureus, Methicillin Resistant (ATCC 33591)); test: MIC; type: cell-based
Description: (§3) The strains included Staphylococcus aureus, Methicillin Resistant (ATCC 33591), Methicillin-Resistant Staphylococcus aureus USA300, Staphylococcus aureus 158, Staphylococcus aureus 22, Staphylococcus aureus 2, Staphylococcus aureus (ATCC 29213), and Staphylococcus aureus 182.
as §2

[15] = system: SA 22 (Staphylococcus aureus 22); test: MIC; type: cell-based
Description: as §3, §2

[16] = system: SA 2 (Staphylococcus aureus 2); test: MIC; type: cell-based
Description: as §3, §2

[17] = system: SA USA 300 (Methicillin-Resistant Staphylococcus aureus USA300); test: MIC; type: cell-based
Description: as §3, §2

[18] = system: SA 182 (Staphylococcus aureus 182); test: MIC; type: cell-based
Description: as §3, §2

[19] = system: SA 158 (Staphylococcus aureus 158); test: MIC; type: cell-based
Description: as §3, §2

[20] = system: SA 29213 (Staphylococcus aureus (ATCC 29213)); test: MIC; type: cell-based
Description: as §3, §2

[21] = system: E. coli 25922; test: MIC; type: cell-based; details: Escherichia coli
[22] = Mammalian Cell Toxicity; type: cell-based; details: mouse, 3T3 cells
[23] = S. pneumoniae 149389, read-out: MIC
[24] = E. faecium 134529, read-out: MIC
[25] = E. faecalis 161651, read-out: MIC
[26] = E. faecium 145494, read-out: MIC
[27] = S. epidermidis MRSE 01, read-out: MIC
[28] = S. epidermidis 35984, read-out: MIC
[29] = E. faecalis 29212, read-out: MIC
[30] = S. pneumoniae 49619, read-out: MIC
[31] = K. pneumoniae UMM, read-out: MIC
[32] = K. pneumoniae 700603, read-out: MIC
[33] = ATCC33591, SA 33591, read-out: MIC
[34] = ATCC29213, SA 29213, read-out: MIC

Row | Compound | CC50 [1] [µg/mL] | MIC [2, 23] [µg/mL] | MIC [3, 24] [µg/mL] | MIC [4, 25] [µg/mL] | MIC [5, 26] [µg/mL] | MIC [6, 27] [µg/mL] | MIC [7, 28] [µg/mL] | MIC [8, 29] [µg/mL] | MIC [9, 30] [µg/mL] | MIC [10, 31] [µg/mL] | IC50 [11] | MIC [12, 32] [µg/mL] | MIC ([13]; E. coli ESBL 4, read-out: MIC) [µg/mL] | MIC [14, 33] [µg/mL] | MIC ([15]; SA 22, read-out: MIC) [µg/mL] | MIC ([16]; SA 2, read-out: MIC) [µg/mL] | MIC ([17]; SA USA 300, read-out: MIC) [µg/mL] | MIC ([18]; SA 182, read-out: MIC) [µg/mL] | MIC ([19]; SA 158, read-out: MIC) [µg/mL] | CC50 [22] [µg/mL] | further results
1 | COc1ccc2c(c1)c(=O)oc1c(C)c(OC(C(=O)O)c3ccccc3)ccc12 (stereo not drawn) [Compound #211, [(8-methoxy-4-methyl-6-oxo-6H-benzo[c]chromen-3-yl)oxy](phenyl)acetic acid] | 26 (≈ 66.6 µM) | 128 (≈ 328 µM) | > 128 | 128 (≈ 328 µM) | > 128 | > 128 | > 128 | 128 (≈ 328 µM) | 32 (≈ 82 µM) | > 128 | agonist | > 128 | > 128 | > 128 | 128 (≈ 328 µM) | 128 (≈ 328 µM) | 128 (≈ 328 µM) | 128 (≈ 328 µM) | 128 (≈ 328 µM) | 28 (≈ 71.7 µM) | MIC [20, 34]: 128 µg/mL (≈ 328 µM); MIC ([21]; E. coli 25922, read-out: MIC): > 128 µg/mL
2 | CCN1C(=O)C2Cc3c([nH]c4ccccc34)CN2C1=S (stereo not drawn) [Compound #740, 2-ethyl-3-thioxo-2,3,5,6,11,11a-hexahydro-1H-imidazo[1′,5′:1,6]pyrido[3,4-b]indol-1-one] | 62 (≈ 217 µM) | > 128 | 64 (≈ 224 µM) | 128 (≈ 449 µM) | > 128 | 64 (≈ 224 µM) | 128 (≈ 449 µM) | 128 (≈ 449 µM) | > 128 | > 128 |  | > 128 | > 128 | 128 (≈ 449 µM) | 32 (≈ 112 µM) | 32 (≈ 112 µM) | 128 (≈ 449 µM) | 128 (≈ 449 µM) | 128 (≈ 449 µM) | 20 to 64 (≈ 70.1 to 224 µM) | pIC50 ([11]; read-out: IC50): 4.35; MIC [20, 34]: 64 µg/mL (≈ 224 µM); MIC ([21]; E. coli 25922, read-out: MIC): > 128 µg/mL
3 | CC[n+]1c(C=CC=CN(C(C)=O)c2ccccc2)sc2ccccc21.[I-] [Compound #928, 2-{4-[acetyl(phenyl)amino]-1,3-butadien-1-yl}-3-ethyl-1,3-benzothiazol-3-ium iodide] | 20 to 64 |  |  |  |  |  |  |  |  |  | agonist |  |  |  |  |  |  |  |  | 20 to 64 | MIC [2]; 149389: > 128 µg/mL; MIC [3]; 134529: 128 µg/mL; MIC [4]; 161651: 128 µg/mL; MIC [5]; 145494: 128 µg/mL; MIC ([6]; MRSE): 64 µg/mL; MIC [7]; 35984: 128 µg/mL; MIC [8]; 29212: 128 µg/mL; MIC [9]; 49619: > 128 µg/mL; MIC [10]: > 128 µg/mL; MIC [12]; 700603: > 128 µg/mL; MIC [13]: > 128 µg/mL; MIC ([14]; ATCC33591): 128 µg/mL; MIC [15]: 64 µg/mL; MIC [16]: 128 µg/mL; MIC [17]: 64 µg/mL; MIC [18]: > 128 µg/mL; MIC [19]: 128 µg/mL; MIC ([20]; ATCC29213): 64 µg/mL; MIC [21]; 25922: > 128 µg/mL

From patent US10316371B2, “Screening methods for identifying specific Staphylococcus aureus inhibitors” (TRANA DISCOVERY, INC., priority 2011, dated 2019)
